Patent US6241963A, “Dopamine and serotonin transporter ligands and imaging agents” (priority 1996, dated 2001)
Several values for one entry are separate records, joined by “and”; a condition that tells them apart may be missing. Equal entries are not always repeated. Where two headings read alike, the source gives them in different places.

How the values were obtained:
[1] = Partition coefficient between 1-octanol (n-octanol) and buffer; assay type: physicochemical; conditions: 1-octanol/pH 7.0 phosphate buffer; listed as TRODAT-1
Procedure: (§1) Partition coefficients were measured by mixing each Tc-99m compound with 3 g each of 1-octanol and buffer (pH 7.0 or 7.4, 0.1 M phosphate) in a test tube. The test tube was vortexed for 3 minutes at room temperature, then centrifuged for 5 minutes. Two weighed samples (0.5 g each) from the 1-octanol and buffer layers were counted in a well counter. The partition coefficient was determined by calculating the ratio of cpm/g of octanol to that of buffer. Samples from the octanol layer were repartitioned until consistent partition coefficient values were obtained. The measurement was repeated 3 times.
as §1, with “The partition coefficient was measured” for “Partition coefficients were measured”, “mixing the” for “mixing each”, “3 min” for “3 minutes”

[2] = assay type: in vivo, Male Sprague-Dawley rats
Procedure: Male Sprague-Dawley rats (225-300 g) allowed free access to food and water were used for in vivo biodistribution studies. Kung, 1984, supra; Kung, 1985, supra. While under ether anesthesia, 0.2 mL of a saline solution containing 1.19a, 1.19b, 1.20a, 1.20b or 1.21 (50-100 μCi) was injected directly into the femoral vein of rats, and the rats were sacrificed by cardiac excision at various time points post-injection. The organs of interest were removed and weighed, and the radioactivity was counted with an automatic gamma counter (Packard 5000). The percentage dose per organ was calculated by a comparison of the tissue counts to suitably diluted aliquots of the injected material. Total activities of blood and muscle were calculated under the assumption that they were 7% and 40% of the total body weight, respectively.
(§2) The major criteria for determining the potential usefulness of in vivo dopamine transporter imaging agents are based on an animal biodistribution study. In this case, rats were used as an animal model. After an intravenous injection of the Tc-99m labeled compounds, the values of initial brain uptake (% dose/whole organ) at 2 minutes post intravenous injection are used to measure the ability to penetrate the intact blood-brain barrier. Compounds displaying higher brain uptake are the better agents (minimum requirement >0.1% dose in brain). The second criteria is the specific uptake in the striatum region of the brain, where dopamine transporters are located. The uptake value (% dose/gram) of the striatum (ST) is divided by the background area, cerebellum (CB; essentially devoid of dopamine transporter); the ratio of ST/CB is an indicator for specific uptake (minimum requirement for ST/CB >1.5). Five structurally similar tropane derivatives were examined in this biological study. (Tables 1.1 to 1.4).
Male Sprague-Dawley rats (225-300 g) that were allowed free access to food and water were used for in vivo biodistribution studies. (Kung, 1984, supra; Kung, 1985, supra). While under halothane anesthesia, 0.2 mL of a saline solution containing 3.24 to 3.34 ([…]) was injected directly into the femoral vein of rats, and they were sacrificed by cardiac excision at various time points post-injection. The organs of interest were removed and weighed, and the radioactivity was counted with an automatic gamma counter (Packard 5000). The percentage dose per organ was calculated by a comparison of the tissue counts to suitably diluted aliquots of the injected material. Total activities of blood and muscle were calculated under the assumption that they were 7% and 40% of the total body weight, respectively.

dopamine transporters = dopamine transporters (Rattus norvegicus, UniProt P23977); assay type: in vivo, Male Sprague-Dawley rats; conditions: rats, iv
Procedure: For dopamine transporter imaging agents, the target area of the brain is the striatum, where dopamine transporters are highly concentrated. The cerebellum region is suitable for use as the background region, because it has no dopamine transporters. The specific uptake is measured by the ratio of % dose/gram of striatum divided by % dose/gram of cerebellum (ST/CB ratio)--the higher the value, the better the specific uptake, and the more promising as a dopamine transporter imaging agent.
(§3) Regional brain distribution in rats was obtained after an injection of 1.19a, 1.19b, 1.20a, 1.20b or 1.21. Samples from different brain regions (cortex, striatum, hippocampus, and cerebellum) were dissected, weighed and counted, and the percentage dose per gram of sample was calculated by comparing the sample counts with the count of the diluted initial dose. The uptake ratio of each region was obtained by dividing the percentage dose per gram of that region by that of the cerebellum. For blocking studies, rats were injected with either β-CIT or haloperidol (iv, 1 mg/Kg) 5 min prior to injection of 1.19a. The rats were dissected and brain tissue samples were counted as described above. The specific uptake of the compound was expressed as ratio of ST/CB (% dose/g of striatum divided by the same of cerebellum).
as §2
as §3, with “3.24 to 3.34.” for “1.19a, 1.19b, 1.20a, 1.20b or 1.21.”, “3.25.” for “1.19a.”, “above.” for “above. The specific uptake of the compound was expressed as ratio of ST/CB (% dose/g of striatum divided by the same of cerebellum).”

[3] = Table 1.2, rats iv, percentage dose per organ

Chain of dopamine transporters (P23977 whole entry): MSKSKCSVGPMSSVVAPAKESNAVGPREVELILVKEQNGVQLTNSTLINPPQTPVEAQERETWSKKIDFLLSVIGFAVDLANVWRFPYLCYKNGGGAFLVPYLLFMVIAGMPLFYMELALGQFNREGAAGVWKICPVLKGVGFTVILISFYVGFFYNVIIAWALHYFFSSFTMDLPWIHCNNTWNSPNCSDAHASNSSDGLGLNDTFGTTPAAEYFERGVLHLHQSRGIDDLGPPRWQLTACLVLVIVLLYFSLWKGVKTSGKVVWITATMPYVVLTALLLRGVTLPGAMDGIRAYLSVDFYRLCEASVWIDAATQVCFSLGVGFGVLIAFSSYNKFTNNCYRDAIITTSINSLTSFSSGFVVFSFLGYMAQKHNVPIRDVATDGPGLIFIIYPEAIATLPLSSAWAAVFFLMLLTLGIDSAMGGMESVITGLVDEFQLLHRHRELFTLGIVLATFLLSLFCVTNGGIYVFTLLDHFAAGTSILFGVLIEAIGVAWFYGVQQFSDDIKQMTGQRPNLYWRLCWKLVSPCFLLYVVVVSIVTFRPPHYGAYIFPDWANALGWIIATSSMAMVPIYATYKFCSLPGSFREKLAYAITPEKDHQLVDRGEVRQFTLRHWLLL

CN1[C@H]2CC[C@@H]1[C@@H](C[N+]13CC[S][99Tc-]14(=[O])[S]CC[N]4CC3)[C@@H](c1ccc(Cl)cc1)C2 (stereo partly drawn) [Compound 1.19a]
Partition coefficient (P.C.), 1-octanol/pH 7.0 buffer [1]: 227 | Biodistribution, Blood, 60 minutes* ([2]; Table 1.2, *unexplained): 6.29 ± 1.12 | Biodistribution, Brain, 60 minutes* ([2]; Table 1.2, *unexplained): 0.12 ± 0.01 | Biodistribution, Heart, 60 minutes* ([2]; Table 1.2, *unexplained): 0.25 ± 0.05 | Biodistribution, Kidney, 60 minutes* ([2]; Table 1.2, *unexplained): 1.76 ± 0.32 | Biodistribution, Liver, 60 minutes* ([2]; Table 1.2, *unexplained): 20.35 ± 0.99 | Biodistribution, Lung, 60 minutes* ([2]; Table 1.2, *unexplained): 1.76 ± 0.12 | Biodistribution, Muscle, 60 minutes* ([2]; Table 1.2, *unexplained): 10.37 ± 0.48 | Biodistribution, Skin, 60 minutes* ([2]; Table 1.2, *unexplained): 4.11 ± 0.29 | Biodistribution, Spleen, 60 minutes* ([2]; Table 1.2, *unexplained): 0.51 ± 0.06 | Biodistribution, Blood, 2 minutes [2, 3]: 4.94 ± 0.46 | Biodistribution, Blood, 60 minutes [2, 3]: 2.14 ± 0.17 | Biodistribution, Brain, 2 minutes [2, 3]: 0.43 ± 0.16 | Biodistribution, Brain, 60 minutes [2, 3]: 0.12 ± 0.00 | Biodistribution, Heart, 2 minutes [2, 3]: 1.47 ± 0.16 | Biodistribution, Heart, 60 minutes [2, 3]: 0.19 ± 0.02 | Biodistribution, Kidney, 2 minutes [2, 3]: 5.13 ± 0.75 | Biodistribution, Kidney, 60 minutes [2, 3]: 3.06 ± 0.14 | Biodistribution, Liver, 2 minutes [2, 3]: 16.62 ± 2.11 | Biodistribution, Liver, 60 minutes [2, 3]: 17.67 ± 3.42 | Biodistribution, Lung, 2 minutes [2, 3]: 6.82 ± 0.37 | Biodistribution, Lung, 60 minutes [2, 3]: 1.86 ± 0.36 | Biodistribution, Muscle, 2 minutes [2, 3]: 10.84 ± 1.95 | Biodistribution, Muscle, 60 minutes [2, 3]: 10.28 ± 1.36 | Biodistribution, Skin, 2 minutes [2, 3]: 2.66 ± 0.35 | Biodistribution, Skin, 60 minutes [2, 3]: 3.96 ± 0.22 | Biodistribution, Spleen, 2 minutes [2, 3]: 0.42 ± 0.16 | Biodistribution, Spleen, 60 minutes [2, 3]: 0.45 ± 0.05 | Brain uptake, 2 min ([2]; rats, iv): 0.43 ± 0.16 % dose/organ | Brain uptake, 2 min ([2]; rats, iv, listed as TRODAT-1): 0.425 ± 0.120 % dose/organ | Brain uptake, 30 min ([2]; rats, iv, 30 min): 0.232 ± 0.021 % dose/organ | Brain uptake, 60 min ([2]; rats, iv, 60 min): 0.12 ± 0.001 % dose/organ and 0.12 ± 0.00 % dose/organ | ST/CB ratio, 2 min (dopamine transporters; 2 min): 0.93 ± 0.23 | ST/CB ratio, 30 min (dopamine transporters): 2.04 ± 0.18 | ST/CB ratio, 30 min (dopamine transporters; listed as TRODAT-1): 2.0 | ST/CB ratio, 60 min (dopamine transporters; 60 min): 2.66 and 2.66 ± 0.01 | ST/CB ratio, 120 min (dopamine transporters; 120 min): 3.90 ± 1.33 | ST/CB ratio, 240 min (4 hours) (dopamine transporters; 240 min): 4.07 | ST/CB ratio, 360 min (dopamine transporters; 360 min): 2.97 ± 0.14
